Like-named read-outs stand apart in the source and are kept apart here.
Key:
[1] = Acute toxicity assessed intravenously in mice (method of Miller and Tainter); conditions: mouse, in vivo; for LD50: read-out: Acute toxicity LD 50
[2] = test system: S.H.R. rats (genetically hypertensive); test: Antihypertensive activity by oral administration to S.H.R. rats (genetically hypertensive); format: in vivo
Experimental: The arterial blood pressure was recorded on an APELAB-BP recorder 8002-and an electromechanical counter provided a direct reading of the heartbeat rate. The measurements were taken at 0 hour, 2 hours, 4 hours, 6 hours and 24 hours after administration of the compounds tested.
To illustrate the invention, the results obtained with some of the compounds of the invention are shown in Table II below in which the symbols AHY, ΔPA and ΔFC have the following meanings:
AHY=% of rats whose arterial blood pressure drops by a value greater than or equal to 20% of the initial value or is brought down to a value less than 150 mmHg,
ΔPA=% variation of the arterial blood pressure in all the animals tested with respect to the initial blood pressure,
ΔFC=% variation of the heart-beat rate of all the animals tested with respect to the initial rate.

[3] = iv, 200 mg/kg, i.v., read-out: Acute toxicity (mice), % at 200 mg/kg i.v. (printed "at 200 (0%)")
[4] = dose 50, 4 hours after administration
[5] = dose 50, 6 hours after administration
[6] = dose 50, 24 hours after administration
[7] = po, 1000 mg/kg, p.o., read-out: Acute toxicity (mice), % at 1000 (p.o.)

CCOC(=O)N1CCN(c2ncnc3nc[nH]c23)CC1 [compound 25]
mortality [1, 3]: 0%

c1cc(N2CCNCC2)c2cc[nH]c2c1 [compound 41]
LD50 ([1]; iv): 35 mg/kg

CCOC(=O)N1CCN(c2cccc3[nH]c(C)nc23)CC1 [compound 26]
LD50 ([1]; iv): 200 mg/kg

(piperazino-4 (7) benzotriazole, dihydrochloride [Code No. 39]
AHY (% of rats whose arterial blood pressure drops by ≥20% of initial value or to <150 mmHg) [2, 4]: 33%
ΔPA (% variation of the arterial blood pressure vs initial) [2, 4]: -15%
AHY (% of rats whose arterial blood pressure drops by ≥20% of initial value or to <150 mmHg) [2, 5]: 67%
ΔFC (% variation of the heart-beat rate vs initial) [2, 5]: +3%
ΔPA (% variation of the arterial blood pressure vs initial) [2, 5]: -21%
ΔFC (% variation of the heart-beat rate vs initial) [2, 6]: 0%

(carbethoxy-4 piperazino-1)-6 purine [Code No. 25]
AHY (% of rats whose arterial blood pressure drops by ≥20% of initial value or to <150 mmHg) [2, 4]: 14%
ΔFC (% variation of the heart-beat rate vs initial) [2, 4]: -5%
ΔPA (% variation of the arterial blood pressure vs initial) [2, 4]: -8%
AHY (% of rats whose arterial blood pressure drops by ≥20% of initial value or to <150 mmHg) [2, 5]: 57%
ΔFC (% variation of the heart-beat rate vs initial) [2, 5]: +1%
ΔPA (% variation of the arterial blood pressure vs initial) [2, 5]: -14%
AHY (% of rats whose arterial blood pressure drops by ≥20% of initial value or to <150 mmHg) [2, 6]: 43%
ΔFC (% variation of the heart-beat rate vs initial) [2, 6]: -4%
ΔPA (% variation of the arterial blood pressure vs initial) [2, 6]: -9%

CSc1nnc(C(=O)N2CCN(c3cccc4[nH]cnc34)CC2)o1 [compound 12]
mortality [1, 7]: 0%

C=C(C)COC(=O)N1CCN(c2cccc3[nH]cnc23)CC1 [Code No. 17]
mortality [1, 3]: 0%

CC(C)C(=O)N1CCN(c2cccc3[nH]cnc23)CC1 [Code No. 3]
mortality [1, 3]: 0%

(benzyloxycarbonyl-4 piperazino-1)-4 indole [Code No. 40]
AHY (% of rats whose arterial blood pressure drops by ≥20% of initial value or to <150 mmHg) [2, 4]: 86%
ΔFC (% variation of the heart-beat rate vs initial) [2, 4]: -11%
ΔPA (% variation of the arterial blood pressure vs initial) [2, 4]: -23%
AHY (% of rats whose arterial blood pressure drops by ≥20% of initial value or to <150 mmHg) [2, 5]: 86%
ΔFC (% variation of the heart-beat rate vs initial) [2, 5]: -8%
ΔPA (% variation of the arterial blood pressure vs initial) [2, 5]: -23%
AHY (% of rats whose arterial blood pressure drops by ≥20% of initial value or to <150 mmHg) [2, 6]: 0%
ΔFC (% variation of the heart-beat rate vs initial) [2, 6]: -9%
ΔPA (% variation of the arterial blood pressure vs initial) [2, 6]: -2%

c1ccc(SN2CCN(c3cccc4[nH]cnc34)CC2)cc1 [compound 24]
mortality [1, 7]: 0%

c1cc(N2CCNCC2)c2nc[nH]c2c1 [Code No. 1, (piperazino-1)-4(7) benzimidazole, tribromhydrate]
LD50 ([1]; iv): 125 mg/kg

(carbethoxy-4 piperazino-1)-4(7) benzimidazole, maleate [Code No. 13]
AHY (% of rats whose arterial blood pressure drops by ≥20% of initial value or to <150 mmHg) [2, 5]: 71%
ΔFC (% variation of the heart-beat rate vs initial) [2, 5]: 0%
ΔPA (% variation of the arterial blood pressure vs initial) [2, 5]: -19%
AHY (% of rats whose arterial blood pressure drops by ≥20% of initial value or to <150 mmHg) [2, 6]: 28%
ΔFC (% variation of the heart-beat rate vs initial) [2, 6]: -7%
ΔPA (% variation of the arterial blood pressure vs initial) [2, 6]: -9%

CCOC(=O)N1CCN(c2cccc3[nH]cnc23)CC1 [compound 13]
LD50 ([1]; iv): 160 mg/kg

c1cc(N2CCNCC2)c2nn[nH]c2c1 [compound 39]
LD50 ([1]; iv): 96 mg/kg

CC(C)COC(=O)N1CCN(c2cccc3[nH]cnc23)CC1 [compound 21]
LD50 ([1]; iv): 195 mg/kg

c1cc(N2CCNCC2)c2[nH]ccc2c1 [compound 42]
LD50 ([1]; iv): 70 mg/kg

O=C(c1cccs1)N1CCN(c2cccc3[nH]cnc23)CC1 [Code No. 7]
mortality [1, 3]: 0%

CCOC(=O)C1CCN(c2cccc3[nH]cnc23)CC1 [compound 30]
LD50 ([1]; iv): 185 mg/kg

Source: US4459296A, “Piperazines and homopiperazines, N-substituted by an aromatic heterocyclic group, and their use in therapeutics” (Delalande S.A., priority 1982, dated 1984)
